In patent publication US20060040957A1, “BICYCLIC PYRIMIDINE MATRIX METALLOPROTEINASE INHIBITORS” (priority 2001, published 2006):
Structures can show the parent of a compound that is named as a salt. Where two headings read alike, the source gives them in different places.

Assays:
Type in all cases: biochemical
[1] = molecular target: MMP-13CD (catalytic domain of collagenase 3) (Homo sapiens, UniProt P45452); assay: Thiopeptolide substrate hydrolysis assay, MMP-13CD; settings: thiopeptolide substrate, HEPES pH 7.0, 22° C.
Excerpt: (§1) Thiopeptolide substrates show virtually no decomposition or hydrolysis at or below neutral pH in the absence of a matrix metalloproteinase enzyme.

[2] = molecular target: T1, MMP-1FL (full length interstitial collagenase) (Homo sapiens, UniProt P03956); assay: Thiopeptolide substrate hydrolysis assay, MMP-1FL; settings: HEPES pH 7.0, 22° C., read-out: IC50 (μM) Versus Certain MMPs: MMP-01 FL
T1 sequence (P03956 100-469): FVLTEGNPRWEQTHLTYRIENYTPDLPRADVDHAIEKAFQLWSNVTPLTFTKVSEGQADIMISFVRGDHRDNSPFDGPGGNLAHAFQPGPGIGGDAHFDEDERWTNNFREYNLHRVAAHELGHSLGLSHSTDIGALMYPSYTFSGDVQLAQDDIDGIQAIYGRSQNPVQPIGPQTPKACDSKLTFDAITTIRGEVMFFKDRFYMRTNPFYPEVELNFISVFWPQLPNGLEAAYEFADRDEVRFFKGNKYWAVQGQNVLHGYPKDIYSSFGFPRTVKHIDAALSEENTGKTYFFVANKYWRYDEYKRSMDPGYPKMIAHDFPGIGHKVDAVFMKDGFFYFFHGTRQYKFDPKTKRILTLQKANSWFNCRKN
Excerpt: (§2) The invention compounds of Formula I have been evaluated in standard assays for their ability to inhibit the catalytic activity of various MMP enzymes.
as §1
(§3) Several representative compounds have been evaluated for their ability to inhibit various matrix metalloproteinase enzymes.

[3] = molecular target: T2, MMP-2FL (full length Gelatinase A) (Homo sapiens, UniProt P08253); assay: Thiopeptolide substrate hydrolysis assay, MMP-2FL; settings: HEPES pH 7.0, 22° C., read-out: IC50 (μM) Versus Certain MMPs: MMP-02 FL
T2 sequence (P08253 110-660): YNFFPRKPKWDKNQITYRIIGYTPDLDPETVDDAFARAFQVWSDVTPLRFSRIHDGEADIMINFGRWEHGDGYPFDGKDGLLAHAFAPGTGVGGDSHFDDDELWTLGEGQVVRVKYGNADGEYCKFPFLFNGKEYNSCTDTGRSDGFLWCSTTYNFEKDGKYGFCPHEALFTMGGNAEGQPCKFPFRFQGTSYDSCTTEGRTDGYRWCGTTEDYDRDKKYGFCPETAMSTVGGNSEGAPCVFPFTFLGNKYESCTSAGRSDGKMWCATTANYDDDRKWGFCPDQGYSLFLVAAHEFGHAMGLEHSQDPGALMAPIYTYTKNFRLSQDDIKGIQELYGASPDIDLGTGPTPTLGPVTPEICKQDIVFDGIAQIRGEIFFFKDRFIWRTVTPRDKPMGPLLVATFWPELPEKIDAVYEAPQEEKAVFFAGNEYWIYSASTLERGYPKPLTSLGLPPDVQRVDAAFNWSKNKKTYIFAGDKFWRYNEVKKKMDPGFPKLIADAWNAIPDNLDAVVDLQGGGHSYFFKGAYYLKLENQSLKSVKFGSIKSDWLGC
Excerpt: as §2, §1, §3

[4] = molecular target: MMP-3CD (catalytic domain of stromelysin-1) (Homo sapiens, UniProt P08254); assay: Thiopeptolide substrate hydrolysis assay, MMP-3CD; settings: MES buffer pH 6.0, read-out: IC50 (μM) Versus Certain MMPs: MMP-03 CD
Chain of MMP-3CD (catalytic domain of stromelysin-1) (P08254 100-272 limits assumed): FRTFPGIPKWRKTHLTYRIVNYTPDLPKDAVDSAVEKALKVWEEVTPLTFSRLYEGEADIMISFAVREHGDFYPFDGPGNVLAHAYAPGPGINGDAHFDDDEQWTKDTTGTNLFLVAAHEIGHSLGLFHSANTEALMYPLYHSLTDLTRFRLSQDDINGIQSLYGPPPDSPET
Experimental: as §2, §1, §3
It should be appreciated that the assay buffer used with MMP-3CD was 50 mM N-morpholinoethane sulfonate (−MES=) at pH 6.0 rather than the HEPES buffer at pH 7.0 described above.

[5] = molecular target: T3, MMP-7FL (full length matrilysin) (Homo sapiens, UniProt P09237); assay: Thiopeptolide substrate hydrolysis assay, MMP-7FL; settings: HEPES pH 7.0, 22° C., read-out: IC50 (μM) Versus Certain MMPs: MMP-07 FL
T3 sequence (P09237 95-267): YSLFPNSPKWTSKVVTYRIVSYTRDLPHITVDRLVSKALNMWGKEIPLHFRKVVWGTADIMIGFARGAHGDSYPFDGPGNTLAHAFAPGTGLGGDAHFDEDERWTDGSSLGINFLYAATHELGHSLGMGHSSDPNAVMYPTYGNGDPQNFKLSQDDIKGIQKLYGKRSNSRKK
Excerpt: as §2, §1, §3

[6] = molecular target: MMP-9FL (full length Gelatinase B) (Homo sapiens, UniProt P14780); assay: Thiopeptolide substrate hydrolysis assay, MMP-9FL; settings: HEPES pH 7.0, 22° C., read-out: IC50 (μM) Versus Certain MMPs: MMP-09 FL
Chain of MMP-9FL (full length Gelatinase B) (P14780 94-707, species assumed): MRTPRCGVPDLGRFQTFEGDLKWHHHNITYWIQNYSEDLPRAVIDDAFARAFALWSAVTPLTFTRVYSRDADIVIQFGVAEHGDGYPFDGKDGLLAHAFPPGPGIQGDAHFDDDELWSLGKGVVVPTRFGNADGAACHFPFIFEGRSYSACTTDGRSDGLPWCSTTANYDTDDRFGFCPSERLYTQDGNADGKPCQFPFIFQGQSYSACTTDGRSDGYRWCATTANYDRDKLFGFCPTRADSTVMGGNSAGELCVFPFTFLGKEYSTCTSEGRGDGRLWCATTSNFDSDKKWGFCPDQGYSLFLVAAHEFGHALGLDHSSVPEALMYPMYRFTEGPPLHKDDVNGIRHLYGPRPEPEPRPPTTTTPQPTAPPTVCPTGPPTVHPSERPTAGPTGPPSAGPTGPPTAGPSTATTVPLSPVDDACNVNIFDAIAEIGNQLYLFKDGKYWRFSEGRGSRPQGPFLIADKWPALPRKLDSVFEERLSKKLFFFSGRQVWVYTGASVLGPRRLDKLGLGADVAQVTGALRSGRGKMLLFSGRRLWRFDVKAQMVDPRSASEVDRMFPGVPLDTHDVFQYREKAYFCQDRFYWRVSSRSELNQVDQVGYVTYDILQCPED
Excerpt: as §2, §1, §3

[7] = molecular target: MMP-14CD (catalytic domain of MMP-14) (Homo sapiens, UniProt P50281); assay: Thiopeptolide substrate hydrolysis assay, MMP-14CD; settings: HEPES pH 7.0, 22° C., read-out: IC50 (μM) Versus Certain MMPs: MMP-14 CD
Excerpt: as §2, §1, §3

[8] = read-out: IC50 (μM) Versus Certain MMPs: MMP-13 CD
[9] = IC50 (μM) Versus Certain MMPs: MMP-13 CD

IC50 [1, 8] | IC50 [2] | IC50 [3] | IC50 [4] | IC50 [5] | IC50 [6] | IC50 [7] | IC50 [1, 9] | Structure (SMILES)
23 µM | > 30 µM | > 30 µM | 3.5 µM | 9.2 µM | > 30 µM | 7.3 µM | – | O=C(Nc1ccc(-c2ccccc2)cc1)c1cn2c(=O)n(Cc3ccccc3)c(=O)cc2s1 [Example 6, 6-Benzyl-5,7-dioxo-6,7-dihydro-5H-thiazolo[3,2-c]pyrimidine-2-carboxylic acid biphenyl-4-ylamide]
– | > 100 µM | > 100 µM | 3.2 µM | > 30 µM | > 100 µM | 8.8 µM | 6.6 µM | O=C(CCc1ccccc1)c1cn2c(=O)n(Cc3ccccc3)c(=O)cc2s1 [Example 8, 6-Benzyl-2-(3-phenyl-propionyl)-thiazolo[3,2-c]pyrimidine-5,7-dione]
– | > 100 µM | > 100 µM | > 100 µM | 8.8 µM | > 30 µM | > 30 µM | 21 µM | Cc1c(C(=O)OCc2ccccc2)sc2cc(=O)n(Cc3ccccc3)c(=O)n12 [Example 19, 6-Benzyl-3-methyl-5,7-dioxo-6,7-dihydro-5H-thiazolo[3,2-c]pyrimidine-2-carboxylic acid benzyl ester]
14.3 µM | > 100 µM | > 100 µM | > 100 µM | > 100 µM | > 100 µM | > 100 µM | – | O=c1cc2sc(C(O)CCc3ccccc3)cn2c(=O)n1Cc1ccccc1 (stereo not drawn) [Example 5, 6-Benzyl-2-(1-hydroxy-3-phenyl-propyl)-thiazolo[3,2-c]pyrimidine-5,7-dione]
– | 81 µM | > 100 µM | 27 µM | 65 µM | 83.5 µM | 47.5 µM | 0.572 µM | O=C(NCc1ccccc1)c1cn2c(=O)n(Cc3ccccc3)c(=O)cc2s1 [Example 4, 6-Benzyl-5,7-dioxo-6,7-dihydro-5H-thiazolo[3,2-c]pyrimidine-2-carboxylic acid benzylamide]
– | > 100 µM | > 100 µM | 11 µM | > 100 µM | > 100 µM | > 100 µM | – | O=C(OCc1ccncc1)c1cn2c(=O)n(Cc3ccccc3)c(=O)cc2s1 [Example 3, 6-Benzyl-5,7-dioxo-6,7-dihydro-5H-thiazolo[3,2-c]pyrimidine-2-carboxylic acid pyridin-4-ylmethyl ester hydrochloride]
– | > 30 µM | > 30 µM | 10 µM | > 30 µM | > 30 µM | > 30 µM | 0.0175 µM | COc1cc(CNC(=O)c2cn3c(=O)n(Cc4ccccc4)c(=O)c(C)c3s2)ccn1 [Example 37]
